Measured values: the supplement of paper PMC10307832

Tests used:
Experiment in all cases: relative viability (nuclei count vs DMSO), 5 days (fraction); higher = more cells survive
NCI-H1755 = system: NCI-H1755
Method in brief: (§1)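 Lung cancer cell lines in 1536-well plates were dosed by pin tool the day after seeding, either with one drug alone or with a fixed anchor-drug dose plus five library-drug doses (not always all listed) in √10 steps. After 5 days, cells were fixed and their nuclei stained in one step (final 0.05% Triton X-100, 1% formaldehyde, 1 ug/ml Hoechst), then counted on 4× images. Relative viability is the nuclei count in treated wells divided by that in vehicle wells. Values are medians of duplicate plates.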

NCI-H1975 = system: NCI-H1975
Method in brief: as §1

NCI-H2228 = system: NCI-H2228
Method in brief: as §1

NCI-H2405 = system: NCI-H2405
Method in brief: as §1

NCI-H322M = system: NCI-H322M
Method in brief: as §1

NCI-H520 = system: NCI-H520
Method in brief: as §1

NCI-H661 = system: NCI-H661
Method in brief: as §1

PC-14 = system: PC-14
Method in brief: as §1

PC-3 [JPC-3] = system: PC-3 [JPC-3]
Method in brief: as §1

RERF-LC-KJ = system: RERF-LC-KJ
Method in brief: as §1

With CC(=O)O[C@@]12CO[C@@H]1C[C@H](O)[C@@]1(C)C(=O)[C@H](O)C3=C(C)[C@@H](OC(=O)[C@H](O)[C@@H](NC(=O)OC(C)(C)C)c4ccccc4)C[C@@](O)([C@@H](OC(=O)c4ccccc4)[C@H]21)C3(C)C [Docetaxel] + Cc1nc(NC(=O)N2CCC[C@H]2C(N)=O)sc1-c1ccnc(C(C)(C)C(F)(F)F)c1 [Alpelisib] (partner 2 µM) the relative viability (NCI-H1755; first compound 0.000632 µM) was 0.792, the relative viability (NCI-H1755; first compound 0.002 µM) was 0.434 and the relative viability (NCI-H1755; first compound 0.006325 µM) was 0.326. For the same compound, the relative viability (NCI-H1755; first compound 0.02 µM) was 0.262, the relative viability (NCI-H1975; first compound 0.0002 µM) was 0.617 and the relative viability (NCI-H1975; first compound 0.000632 µM) was 0.437. It also gave a relative viability (NCI-H1975; first compound 0.006325 µM) of 0.156, a relative viability (NCI-H1975; first compound 0.02 µM) of 0.122 and a relative viability (NCI-H2228; first compound 0.0002 µM) of 0.329. It also gave a relative viability (NCI-H2228; first compound 0.000632 µM) of 0.243, a relative viability (NCI-H2228; first compound 0.002 µM) of 0.232 and a relative viability (NCI-H2228; first compound 0.006325 µM) of 0.151. It also gave a relative viability (NCI-H2228; first compound 0.02 µM) of 0.118, a relative viability (NCI-H2405; first compound 0.0002 µM) of 0.894 and a relative viability (NCI-H2405; first compound 0.000632 µM) of 0.677. It also gave a relative viability (NCI-H2405; first compound 0.002 µM) of 0.467, a relative viability (NCI-H2405; first compound 0.006325 µM) of 0.448 and a relative viability (NCI-H2405; first compound 0.02 µM) of 0.288. For the same compound, the relative viability (NCI-H322M; first compound 0.0002 µM) was 0.908, the relative viability (NCI-H322M; first compound 0.000632 µM) was 0.869 and the relative viability (NCI-H322M; first compound 0.002 µM) was 0.618. The relative viability (NCI-H322M; first compound 0.006325 µM) was 0.533, the relative viability (NCI-H322M; first compound 0.02 µM) was 0.181 and the relative viability (NCI-H520; first compound 0.0002 µM) was 0.786. It also gave a relative viability (NCI-H520; first compound 0.000632 µM) of 0.95, a relative viability (NCI-H520; first compound 0.002 µM) of 0.287 and a relative viability (NCI-H520; first compound 0.006325 µM) of 0.152. It also gave a relative viability (NCI-H520; first compound 0.02 µM) of 0.13, a relative viability (NCI-H661; first compound 0.0002 µM) of 0.468 and a relative viability (NCI-H661; first compound 0.000632 µM) of 0.582. For the same compound, the relative viability (NCI-H661; first compound 0.002 µM) was 0.411, the relative viability (NCI-H661; first compound 0.006325 µM) was 0.344 and the relative viability (NCI-H661; first compound 0.02 µM) was 0.176. It also gave a relative viability (PC-14; first compound 0.0002 µM) of 0.895, a relative viability (PC-14; first compound 0.000632 µM) of 0.998 and a relative viability (PC-14; first compound 0.002 µM) of 0.354. It also gave a relative viability (PC-14; first compound 0.006325 µM) of 0.11, a relative viability (PC-14; first compound 0.02 µM) of 0.0576 and a relative viability (PC-3 [JPC-3]; first compound 0.0002 µM) of 1.02. The relative viability (PC-3 [JPC-3]; first compound 0.000632 µM) was 1.07, the relative viability (PC-3 [JPC-3]; first compound 0.002 µM) was 0.781 and the relative viability (PC-3 [JPC-3]; first compound 0.006325 µM) was 0.279. It also gave a relative viability (PC-3 [JPC-3]; first compound 0.02 µM) of 0.167, a relative viability (RERF-LC-KJ; first compound 0.0002 µM) of 0.801 and a relative viability (RERF-LC-KJ; first compound 0.000632 µM) of 0.712. The relative viability (RERF-LC-KJ; first compound 0.002 µM) was 0.38, the relative viability (RERF-LC-KJ; first compound 0.006325 µM) was 0.235 and the relative viability (RERF-LC-KJ; first compound 0.02 µM) was 0.172.
